Results published in a melting point compilation (Tetko et al.; mined from patent text by program, amines drawn as free bases though some values may be those of a salt).

FC(F)(F)C(F)(F)C(F)(F)C(F)(F)C(F)(F)C(F)(F)C(F)(F)C(F)(F)C(F)(F)C(F)(F)C(F)(F)Br gave a melting point of 96 to 98 °C. Fc1ccc(Nc2ncnc3cnc(N4CCC(CCC5CCNCC5)CC4)nc23)cc1Cl gave a melting point of 112 to 114 °C. In the case of O=C1Nc2cc(Cl)ccc2Sc2ccccc21, the melting point is reported as 163 to 165 °C. NC(=O)NC(=O)C(Cl)(Cl)CC1(c2cc(Cl)cc(Cl)c2)CO1 (stereo not drawn) gave a melting point of 186 to 189 °C. OCC(=C(c1ccc(F)cc1)c1ccc(F)cc1)c1nnn(C(c2ccccc2)(c2ccccc2)c2ccccc2)n1 showed a melting point of 176 to 178 °C. Compound CC1(C)CC(=O)N(c2ccc(OC(=O)N3CCc4ccccc4C3)nc2)C(=O)C1 has a melting point of 156 to 158 °C. In the case of O=C1CCC(c2ccc(CCCN3CCN(c4ccccc4)CC3)cc2)N1 (stereo not drawn), the melting point is reported as 130 °C. Compound CSc1sc(C(=O)O)c2c1-c1nn(C)cc1CC2 has a melting point of 290 to 291 °C. Compound O=C(O)CCSc1ccccc1CNC(=O)C1Cc2ccccc2N1S(=O)(=O)c1ccc(-c2cccc(C(F)(F)F)c2)cc1 (stereo not drawn) has a melting point of 85 to 89 °C. Work on CCCCOc1nsnc1OC[C@@H]1CCCN1 yielded a melting point of 99 to 100 °C. Compound COc1cc(OC)c2c(c1)C(=O)c1cc(C)cc(OC)c1C2=O has a melting point of 225 °C. C#CCCN1C(=O)c2cccc3cccc(c23)C1=O showed a melting point of 191 to 193 °C. Compound CSc1ccc(-n2c(-c3cccnc3)nc(SC)c(C#N)c2=O)cc1 has a melting point of 212 to 215 °C. Work on CC1(C)CCC(C)(C)c2cc3c(cc21)CCc1cc(-c2ccc(C(=O)O)cc2)oc1-3 yielded a melting point of 264 to 265 °C. In the case of O=c1cc(-c2nnn[nH]2)oc2c(COc3ccc(OCc4ccc5ccccc5n4)cc3)cccc12, the melting point is reported as > 250 °C. Compound O=C(NCNC(=O)c1ccccc1C(=O)c1ccccc1)Nc1cccc(C(=O)OCc2ccccc2)c1 has a melting point of 157 to 159 °C. For CS(=O)(=O)c1cccnc1CC1C(=O)C2(COc3cc4c(cc32)OCCO4)c2ccccc21 (stereo not drawn), the melting point was > 250 °C. Work on O=C(CCl)NCC1OCCO1 yielded a melting point of 61 to 63 °C. Work on COc1ccc2c(c1)CC[C@@H]1[C@@H]2CC[C@@]2(C)[C@H]1CCC21CC(O)CO1 (stereo partly drawn) yielded a melting point of 95 to 97 °C. CCCc1nc2c(N)nc3ccccc3c2n1CCCCN(OC)S(C)(=O)=O showed a melting point of 178 to 188 °C. Work on N#Cc1ccc(-c2ccc(F)cc2)nc1 yielded a melting point of 149 °C. Compound CCCc1ccc(NC(=O)c2cccnc2NCc2ccc(=O)[nH]c2)cc1C(F)(F)F has a melting point of 220 to 224 °C. With CCOC(=O)NN=Cc1nc(C(C)(C)C)[nH]c1C the melting point was 226 to 228 °C. CC(C)(C)C(=O)C(=CC(=O)c1ccc(Cl)cc1)n1cncn1 showed a melting point of 140 °C. Compound O=c1[nH]nc(-c2ccc(Cl)cc2)o1 has a melting point of 125 to 127 °C. With OC[C@H]1CC[C@H](c2ccc(F)cc2)CC1 the melting point was 65 to 70 °C. O=C1CCC(n2cnc(-c3ccc(F)cc3)c2-c2ccnc(Nc3ccccc3)n2)CC1 gave a melting point of 205 to 207 °C. O=C1Nc2ccc(S(=O)(=O)N3CCCC3)cc2C1=O showed a melting point of 200 to 201 °C. Work on Cc1ccc2c(N3CCN(CCc4cccc(N5CCNC5=O)c4)CC3)cccc2n1 yielded a melting point of 164 °C. Work on COc1cc(C=C2CC(=O)OC2=O)cc(OC)c1OC yielded a melting point of 184 to 187 °C. COc1nc2c(C)cc(C)cc2c(-c2ccccc2Cl)c1NC(=O)Nc1cccc(C(F)(F)F)c1 showed a melting point of 151 to 153 °C. CCOC(=O)C1=C(Cl)N=C(C)N(C(=O)OC)C1c1cccc([N+](=O)[O-])c1 (stereo not drawn) gave a melting point of 113 to 114 °C. In the case of C=CCOc1cc(C(=O)O)cc([N+](=O)[O-])c1C(=O)c1ccccc1, the melting point is reported as 192 to 193 °C. O=[N+]([O-])C=C(NCCO)NCCO gave a melting point of 145 to 146 °C. With COc1ccc(-c2nc(C)c(NC(C)=O)[nH]2)cc1 the melting point was 202 to 204 °C. With CC(=O)Nc1ccc2c(c1)/C(=N\NC(N)=O)C(=O)N2CCN(C(C)C)C(C)C the melting point was 135 to 137 °C. In the case of COc1ccc(-c2nnc3c4ccccc4c(Nc4ccc(NC(=O)c5ccc(N6CCOCC6)cc5)cc4)nn23)cc1, the melting point is reported as 313 °C. Compound CCC1(CC)OC(c2ccc(S(C)(=O)=O)cc2)=C(c2ccc(OC)c(F)c2)C1=O has a melting point of 183 to 184 °C. With CC(C)CCCC(C)C1CCC2C3C=CC4=CC(O)CC(O)C4(C)C3CCC12C (stereo not drawn) the melting point was 120 to 121 °C. Work on C=CC12CCc3cc(O)ccc3C1CCC1(C)C(=O)CCC12 (stereo not drawn) yielded a melting point of 239 to 242 °C. For COc1cc(C2=CCN(S(=O)(=O)CC(=O)NO)CC2)ccc1-c1ccccc1, the melting point was 175 to 177 °C. Compound CCOC(=O)c1[nH]c2ccc(Cl)cc2c1Cc1ccccc1 has a melting point of 196 to 197 °C. With O=C(Oc1ccc(C(=O)c2ccc(Cl)cc2)cc1)Oc1ccc(C(=O)c2ccc(Cl)cc2)cc1 the melting point was 235 to 237 °C. Compound CC(C)(C)OC(=O)Nc1cc(N2CCC3(CC2)OCCO3)c(-c2ccccc2F)cc1N has a melting point of 198 °C. For O=CN(CCl)c1ccccc1, the melting point was 67 °C. NC(=O)CN1CC2CCCCCC2C1=O (stereo not drawn) gave a melting point of 145 to 147 °C. For COc1cccc2c1nc(C(F)F)n2-c1nc(NC2CCN(C(=O)OC(C)(C)C)CC2)c([N+](=O)[O-])c(N2CCOCC2)n1, the melting point was 229 to 231 °C. In the case of COc1cccc(-c2nc(C)nn2-c2ccc(S(N)(=O)=O)cc2)c1, the melting point is reported as 211 to 212 °C.
